# Assays:
# Format in all cases: functional
# MDA-MB-435 [1] = test: Cytotoxicity against human MDA-MB-435 cells after 48 hrs by SRB assay; details: MDA-MB-435, 48 h
# [2] = Cytotoxicity against human OVCAR5 cells assessed as cell growth at 10^-4 M after 48 hrs by SRB assay relative to control; details: OVCAR-5, 48 h, read-out: Activity
# SN12C = test: Cytotoxicity against human SN12C cells assessed as cell growth at 10^-6 M after 48 hrs by SRB assay relative to control; details: read-out: Activity
# MOLT-4 = test: Cytotoxicity against human MOLT4 cells assessed as cell growth at 10^-6 M after 48 hrs by SRB assay relative to control; details: MOLT-4, 48 h, read-out: Activity
# MDA-MB-468 [3] = test: Cytotoxicity against human MDA-MB-468 cells after 48 hrs by SRB assay; details: MDA-MB-468, 48 h
# SK-MEL-2 [4] = test: Cytotoxicity against human SK-MEL-2 cells assessed as cell growth at 10^-6 M after 48 hrs by SRB assay relative to control; details: SK-MEL-2, 48 h, read-out: Activity
# LOX IMVI [5] = test: Cytotoxicity against human LOXIMVI cells assessed as cell growth at 10^-7 M after 48 hrs by SRB assay relative to control; details: read-out: Activity
# 786-0 = test: Cytotoxicity against human 786-0 cells after 48 hrs by SRB assay; details: 786-0, 48 h
# SW-620 = test: Cytotoxicity against human SW620 cells after 48 hrs by SRB assay; details: SW-620, 48 h
# SK-MEL-2 [6] = test: Cytotoxicity against human SK-MEL-2 cells assessed as cell growth at 10^-7 M after 48 hrs by SRB assay relative to control; details: SK-MEL-2, 48 h, read-out: Activity
# A549 [7] = test: Cytotoxicity against human A549 cells after 48 hrs by SRB assay; details: A549, 48 h
# SF-539 [8] = test: Cytotoxicity against human SF539 cells assessed as cell growth at 10^-8 M after 48 hrs by SRB assay relative to control; details: SF-539, 48 h, read-out: Activity
# U-251 [9] = test: Cytotoxicity against human U251 cells assessed as cell growth at 10^-8 M after 48 hrs by SRB assay relative to control; details: U-251, 48 h, read-out: Activity
# CAKI-1 = test: Cytotoxicity against human Caki1 cells after 48 hrs by SRB assay; details: CAKI-1, 48 h
# DU-145 = test: Cytotoxicity against human DU145 cells assessed as cell growth at 10^-7 M after 48 hrs by SRB assay relative to control; details: DU-145, 48 h, read-out: Activity
# [10] = Cytotoxicity against human Hs 578T cells assessed as cell growth at 10^-8 M after 48 hrs by SRB assay relative to control; details: read-out: Activity
# HCC 2998 = test: Cytotoxicity against human HCC2998 cells assessed as cell growth at 10^-6 M after 48 hrs by SRB assay relative to control; details: HCC 2998, 48 h, read-out: Activity
# KM12 = test: Cytotoxicity against human KM12 cells assessed as cell growth at 10^-8 M after 48 hrs by SRB assay relative to control; details: KM12, 48 h, read-out: Activity
# MDA-MB-231 = test: Cytotoxicity against human MDA-MB-231 cells assessed as cell growth at 10^-6 M after 48 hrs by SRB assay relative to control; details: MDA-MB-231, 48 h, read-out: Activity
# [11] = Cytotoxicity against human NCI-ADR-RES cells after 48 hrs by SRB assay
# T47D = test: Cytotoxicity against human T47D cells after 48 hrs by SRB assay
# MDA-MB-435 [12] = test: Cytotoxicity against human MDA-MB-435 cells assessed as cell growth at 10^-7 M after 48 hrs by SRB assay relative to control; details: MDA-MB-435, 48 h, read-out: Activity
# MDA-MB-468 [13] = test: Cytotoxicity against human MDA-MB-468 cells assessed as cell growth at 10^-8 M after 48 hrs by SRB assay relative to control; details: MDA-MB-468, 48 h, read-out: Activity
# SF-539 [14] = test: Cytotoxicity against human SF539 cells assessed as cell growth at 10^-4 M after 48 hrs by SRB assay relative to control; details: SF-539, 48 h, read-out: Activity
# U-251 [15] = test: Cytotoxicity against human U251 cells assessed as cell growth at 10^-7 M after 48 hrs by SRB assay relative to control; details: U-251, 48 h, read-out: Activity
# [16] = Cytotoxicity against human NCI-ADR-RES cells assessed as cell growth at 10^-6 M after 48 hrs by SRB assay relative to control; details: read-out: Activity
# LOX IMVI [17] = test: Cytotoxicity against human LOXIMVI cells after 48 hrs by SRB assay
# A549 [18] = test: Cytotoxicity against human A549 cells assessed as cell growth at 10^-6 M after 48 hrs by SRB assay relative to control; details: A549, 48 h, read-out: Activity
# [19] = Cytotoxicity against human HCT15 cells after 48 hrs by SRB assay; details: HCT-15, 48 h
# A498 = test: Cytotoxicity against human A498 cells assessed as cell growth at 10^-7 M after 48 hrs by SRB assay relative to control; details: A498, 48 h, read-out: Activity
# NCI-H23 = test: Cytotoxicity against human NCI-H23 cells after 48 hrs by SRB assay; details: NCI-H23, 48 h
# [20] = Cytotoxicity against human OVCAR5 cells after 48 hrs by SRB assay; details: OVCAR-5, 48 h
# ACHN = test: Cytotoxicity against human ACHN cells assessed as cell growth at 10^-8 M after 48 hrs by SRB assay relative to control; details: read-out: Activity
# [21] = Cytotoxicity against human HCT116 cells assessed as cell growth at 10^-7 M after 48 hrs by SRB assay relative to control; details: HCT-116, 48 h, read-out: Activity
# SF-539 [22] = test: Cytotoxicity against human SF539 cells assessed as cell growth at 10^-7 M after 48 hrs by SRB assay relative to control; details: SF-539, 48 h, read-out: Activity
# SF-268 = test: Cytotoxicity against human SF268 cells assessed as cell growth at 10^-7 M after 48 hrs by SRB assay relative to control; details: SF-268, 48 h, read-out: Activity
# [23] = read-out: LC50 (the source's name)
smiles,measurement,setting,value
CC(C)=CCC[C@H](C)c1ccc(C)c(CNCC2CCNCC2)c1O,GI50,MDA-MB-435 [1],3.71 µM
same,TGI,MDA-MB-435 [1],8.44 µM
same,CC50,MDA-MB-435 [1]; [23],19.2 µM
same,growth at 100 µM,[2],27%
same,growth at 1 µM,SN12C,93%
same,growth at 1 µM,MOLT-4,99%
same,GI50,MDA-MB-468 [3],3.33 µM
same,LC50,MDA-MB-468 [3],14.1 µM
same,TGI,MDA-MB-468 [3],6.86 µM
same,growth at 1 µM,SK-MEL-2 [4],116%
same,growth at 0.1 µM,LOX IMVI [5],95%
same,GI50,786-0,5.01 µM
same,LC50,786-0,> 25 µM
same,TGI,786-0,11.5 µM
same,GI50,SW-620,4.11 µM
same,TGI,SW-620,8.14 µM
same,CC50,SW-620; [23],16.1 µM
same,growth at 0.1 µM,SK-MEL-2 [6],97%
same,GI50,A549 [7],7.27 µM
same,LC50,A549 [7],> 25 µM
same,TGI,A549 [7],24.9 µM
same,growth at 0.01 µM,SF-539 [8],96%
same,growth at 0.01 µM,U-251 [9],96%
same,GI50,CAKI-1,4.62 µM
same,TGI,CAKI-1,13.4 µM
same,CC50,CAKI-1; [23],> 25 µM
same,growth at 0.1 µM,DU-145,96%
same,growth at 0.01 µM,[10],94%
same,growth at 1 µM,HCC 2998,99%
same,growth at 0.01 µM,KM12,97%
same,growth at 1 µM,MDA-MB-231,104%
same,GI50,[11],19.8 µM
same,"LC50 (lethal concentration, 50% cell kill)",[11],> 25 µM
same,TGI,[11],> 25 µM
same,GI50,T47D,4.33 µM
same,LC50 (concentration killing 50% of cells),T47D,18.1 µM
same,TGI,T47D,8.86 µM
same,growth at 0.1 µM,MDA-MB-435 [12],92%
same,growth at 0.01 µM,MDA-MB-468 [13],95%
same,growth at 100 µM,SF-539 [14],-77%
same,growth at 0.1 µM,U-251 [15],93%
same,growth at 1 µM,[16],95%
same,GI50,LOX IMVI [17],3.85 µM
same,LC50 (concentration killing 50% of cells),LOX IMVI [17],16.5 µM
same,TGI,LOX IMVI [17],7.96 µM
same,growth at 1 µM,A549 [18],98%
same,GI50,[19],5.19 µM
same,TGI,[19],18.6 µM
same,CC50,[19]; [23],> 25 µM
same,growth at 0.1 µM,A498,74%
same,GI50,NCI-H23,> 25 µM
same,LC50,NCI-H23,> 25 µM
same,TGI,NCI-H23,> 25 µM
same,GI50,[20],9.56 µM
same,TGI,[20],> 25 µM
same,CC50,[20]; [23],> 25 µM
same,growth at 0.01 µM,ACHN,96%
same,growth at 0.1 µM,[21],98%
same,growth at 0.1 µM,SF-539 [22],91%
same,growth at 0.1 µM,SF-268,97%

# From ChEMBL document CHEMBL3390836, “Mannich- and LedererManasse-based analogues of the natural product S-(+)-curcuphenol as cancer proliferation and migration inhibitors” (Medchemcomm, 2012)
